Legend:
[1] = system: phosphorylated tau / NeuN positive neurons in cortex; experiment: Brain immunohistochemistry in htau mice (AT8, NeuN); type: in vivo, htau mouse; conditions: 100 mg/kg p.o. q.o.d.
Experimental: Brain Tissue Histology. Left brain hemispheres of htau mice were harvested for total RNA. Right brain hemispheres (unfrozen) of htau mice were stored in 10% neutral buffered formalin (VWR) for 48 h. Tissue processing, embedding, and sectioning were performed and generated by the Scripps Florida Histology Core. Briefly, tissue was embedded in paraffin using a Sakura Tissue-Tek VIP5 paraffin processor, sectioned at 4 μm, and then mounted on positively charged slides for further immunostaining. The slides were stained on a Leica BondMax Immunostaining platform with the following primary antibodies: AT8 (MN1020, Invitrogen; 1:100 dilution) and NeuN (MAB377B, Chemicon; 1:500 dilution). After the slides were washed three times with 1×DPBS, a DAB Substrate Kit (Vector Laboratories, Inc.) was used to detect the primary antibodies per the manufacturer's protocol. After staining was complete, the slides were dehydrated, cover-slipped with Cytoseal 60 (Thermo Scientific), and imaged with a Leica DMI3000 B upright fluorescent microscope using 20× or 60× objective. Quantification was performed in a blinded fashion using ImageJ in which positivity was identified as aggregates (purple staining of AT8 or brown staining of NeuN) with diameter over 20 μm and staining signal over 185 that were kept constant across all treatment groups.

[2] = Plasma protein binding by equilibrium dialysis; type: in vitro ADME; conditions: 37° C., 6 h (2 at 5 μM), read-out: free fraction in plasma
Experimental: Plasma and brain binding. Plasma protein binding was determined by equilibrium dialysis using a Thermo Scientific™ RED Device per the manufacturer's protocol. Each sample was prepared by addition of 2 into 100 μL plasma with final concentration of 5 μM (0.1% (v/v) DMSO). 1×PBS was used as dialysis buffer and was added into the buffer chamber. The plate was incubated with shaking at 37° C. for 6 h. The concentration of 2 in the plasma and buffer compartments was determined as described in Quantitation of 2 in Mouse Plasma and Brain. The free fraction was calculated as [buffer]/[plasma].

[3] = type: physicochemical; conditions: not tested for this reason
LAN5 transcriptome = experiment: RNA-seq transcriptome-wide selectivity in LAN5 cells; type: cell-based, human
Experimental: RNA-Seq. LAN5 cells in 12-well plate (~60% confluency) were treated with 2 (1.5 μM), 0.1% (v/v) DMSO (vehicle), 4R-to-3R tau ASO (0.5 μM), or scrambled ASO (0.5 μM) for 48 h. Total RNA was extracted using an RNeasy Mini Kit (Qiagen) per the manufacturer's protocol. Next, rRNA was depleted using NEBNext rRNA depletion modules (E6310L, New England Biosciences) and prepared with NEBNext Ultra II Dir RNA Lib Prep Kit (E7760S, New England Biosciences) according to the manufacturer's protocol. The prepared libraries were processed with NextSeq 500/550 High Output Kit v2.5 (Illumina, 20024907) per the manufacturer's protocol and then sequenced on a NextSeq 500. After sequencing, the BCL files were converted to FASTQ files using basemount/0.12.8.1516 and bcl2fastq/2.17.1.14.^33 The sequencing depth was over 82 million for each sample.
FastQC^34 and RSeQC^35 were used to determine the quality of reads and any overrepresentation of sequences. HISAT2^36 was used to map the reads to the reference human genome (hg19), and the output SAM files were converted to BAM files and sorted by index. Kallisto^37 and NCBI reference sequences (RefSeq)^38 were used for gene quantification to calculate transcripts per million (TPM). Differentially expressed genes were detected with Sleuth^39 and determined by a multiple test corrected p-value<0.05. Splicing event PSI values were quantitated using MISO.^40

DDPAC SRE RNA = experiment: In vitro competitive Chem-CLIP (C-Chem-CLIP), DDPAC SRE RNA; conditions: 3 at 1.5 μM, read-out: IC50, competition of the binding of 3
Experimental: In Vitro Chemical Cross-linking and Isolation by Pull Down (Chem-CLIP) and Competitive Chem-CLIP (C-Chem-CLIP). Growth medium [Dulbecco's modified eagle medium (DMEM; corning, 10-013-CM) with 1× Glutagro (corning)] and 10% (v/v) fetal bovine serum (FBS; Sigma, 12003C) was inactivated by heating at 95° C. for 15 min and slowly cooling to room temperature. Approximately 10,000 counts of 32P 5′-end labeled tau WT, DDPAC, WT+I17T, or DDPAC+I17T RNA were folded in 10 μL growth medium by heating at 65° C. for 5 min and slowly cooling to room temperature. Chem-CLIP probe 3 or negative control probe 4 was then added into the folded RNA in a total volume of 20 μL, and the mixtures were incubated at 37° C. for 1 h. For C-Chem-CLIP, dilutions of competing compound 2 were incubated with RNA for 30 min before adding 3. […]
The Chem-CLIP probe 3 or control probe 4 was then clicked to disulfide biotin azide (2 μL of 10 mM solution prepared in DMSO solution per sample; Click Chemistry Tools, catalog no. 1168-10). […] The radioactive signal from bound RNAs (on the beads) and unbound RNAs (in the wash buffer) was measured by using a Beckman Coulter LS6500 Liquid Scintillation Counter as Rbound and Runbound. Enrichment was calculated as the percentage of radiolabeled RNA captured by beads calculated as Rbound/(Rbound+Runbound).

- fraction unbound at 6 h [2]: 0.089 ± 0.009
- solubility at 200 μM [3]: insolubility
- IC50 (DDPAC SRE RNA): ~2000 nM
Structure (SMILES): COc1cc(N)ncc1CCCN(C)CCCn1cnc2c3ccccc3n(C)c2c1=O [Compound 2, 3-(3-((3-(6-amino-4-methoxypyridin-3-yl)propyl)(methyl)amino)propyl)-5-methyl-3,5-dihydro-4H-pyrimido[5,4-b]indol-4-one]
- AT8 antibody immunoreactivity (phosphorylated tau) [1]: reduced antibody immunoreactivity throughout the cortex
- NeuN (neuron viability) [1]: enhanced
- expression of MAPT gene (LAN5 transcriptome; 2 at 1.5 μM or ASO 0.5 μM): Neither 2 nor the ASO altered the expression of MAPT gene
- alternative splicing of MAPT exons (exon 10) (LAN5 transcriptome; 2 at 1.5 μM or tau ASO 0.5 μM): only one significantly reduced
- genes unchanged, percent (LAN5 transcriptome; 2 at 1.5 μM, 48 h): 99.73%
